# From patent US5352770A, “Porcine derived novel physiologically active peptide” (priority 1990, dated 1994)
# Positions of bridges follow the written chain, without caps; N, C: chain ends. No end group written: not given here.
# What was measured:
# [1] = tested on: chick rectum; test: Chick rectum relaxant activity; conditions: fold activity versus α-hANP
# Protocol: Chick rectum relaxant activity was measured in accordance with the method of Curtie et al. (Cuttle et al., Nature, 221, 1-13, 1983).
# [2] = tested on: Male SD rats; test: Natriuretic and hypotensive actions in anesthetized rats after intravenous administration; format: in vivo, rat; conditions: for Blood pressure drop / Cl- excretion / K+ excretion / Na+ excretion / Urine excretion: change in 15 min after administration vs before, mean±S.D., 4 animals
# Protocol: Male SD rats (body weight: 230-290 g) were anesthetized by intraperitoneal injection with 65 mg/kg of pentobarbital and fitted with a tracheotomy tube (PE-240 of Clay Adams) in order to insure the respiratory tract. A cannula (PE-50) for blood pressure measurement was inserted into the hip artery and a Ringer's solution was injected at a steady rate of 1.8 ml/hr through a cannula (PE-10) inserted into the hip vein. A urinary sample was taken into a test tube through a cystic cannula in the form of a Silastic tube (i.d. 0.02 inch; o.d. 0.037 inch; Dow Corning). Urinary samples were taken both for 15 minutes before the administration of the test substance and until 15 minutes after the administration at 5 min interval, followed by subsequent sampling at predetermined time intervals. By comparing the amount of each sample with the concentration of an electrolyte in it, as well as by measuring the blood pressure changes, the actions of the test substance were evaluated.
# The test substance CNP was dissolved in a predetermined amount in 0.1 N acetic acid and thereafter neutralized with a 1/10 volume of 1.3 M Tris solution. The sample was diluted with 50 μl of sterilized physiological saline and administered via the cervical vein.
# Data are shown in terms of mean±S.D., as obtained from each group of 4 animals, of the change that occurred in the 15-min period from the administration of the test substance, as compared to the state before the administration.
# [3] = tested on: VSMC of rats; test: Cell growth suppressing activity ([3H]thymidine uptake); format: cell-based, rat; conditions: cultured vascular smooth muscle cell line
# Protocol: Cell growth suppressing ability was evaluated in accordance with the method of Kariya et al. (Atherosclerosis, 80, 143-147, 1990) by measuring the uptake of ^3 H thymidine into cells as an indicator of DNA synthesis activity using VSMC of rats. Cells tuned to a stationary phase were incubated in 1% serum at 37° C. for 14 h together with various concentrations of α-hANP or CNP; following the addition of 37 KBq/ml [^3 H]thymidine, the incubation was continued for another 4 h. The radioactivity of [^3 H] thymidine incorporated into the cells was measured. The values of measurement were such that the radioactivity of [^3 H] thymidine for the case where only 1% serum was added in the absence of peptide was taken as 100%, with the percent suppression due to the peptide at the respective concentrations being accordingly calculated.
# [4] = tested on: cultured vascular smooth muscle cell line; test: cGMP production in cultured vascular smooth muscle cell line; format: cell-based
# [5] = tested on: rats; conditions: cited from earlier work
Molecule,Chick rectum relaxant activity relative to α-hANP [1],Blood pressure drop ([2]; CNP dose 12 nmol/kg i.v.) [mmHg],Cl- excretion ([2]; CNP dose 12 nmol/kg i.v.) [%],K+ excretion ([2]; CNP dose 12 nmol/kg i.v.) [%],Na+ excretion ([2]; CNP dose 12 nmol/kg i.v.) [%],Urine excretion ([2]; CNP dose 12 nmol/kg i.v.) [%],Blood pressure drop ([2]; CNP dose 80 nmol/kg i.v.) [mmHg],Cl- excretion ([2]; CNP dose 80 nmol/kg i.v.) [%],K+ excretion ([2]; CNP dose 80 nmol/kg i.v.) [%],Na+ excretion ([2]; CNP dose 80 nmol/kg i.v.) [%],Urine excretion ([2]; CNP dose 80 nmol/kg i.v.) [%],Blood pressure drop ([2]; CNP dose 160 nmol/kg i.v.) [mmHg],Cl- excretion ([2]; CNP dose 160 nmol/kg i.v.) [%],K+ excretion ([2]; CNP dose 160 nmol/kg i.v.) [%],Na+ excretion ([2]; CNP dose 160 nmol/kg i.v.) [%],Urine excretion ([2]; CNP dose 160 nmol/kg i.v.) [%],"Natriuretic and hypotensive actions (in words) ([2]; rats, intravenous, 12-160 nmol/kg)",Growth inhibiting action on vascular smooth muscle cells (in words) [3],Activity for promoting the production of cGMP (in words) [4],Natriuretic and hypotensive actions compared with α-hANP (in words) [5]
CC[C@H](C)[C@@H]1NC(=O)[C@H](CCCNC(=N)N)NC(=O)[C@H](CC(=O)O)NC(=O)[C@H](CC(C)C)NC(=O)[C@H](CCCCN)NC(=O)[C@H](CC(C)C)NC(=O)CNC(=O)[C@H](Cc2ccccc2)NC(=O)[C@@H](NC(=O)CNC(=O)[C@H](CCCCN)NC(=O)[C@H](CO)NC(=O)[C@H](CC(C)C)NC(=O)CN)CSSC[C@@H](C(=O)O)NC(=O)CNC(=O)[C@H](CC(C)C)NC(=O)CNC(=O)[C@H](CO)NC(=O)[C@H](CCSC)NC(=O)[C@H](CO)NC(=O)CNC1=O [CNP],3 - 4 times,6.7 ± 1.7,228 ± 32,220 ± 43,192 ± 28,229 ± 38,16.7 ± 4.2,301 ± 83,167 ± 29,286 ± 125,251 ± 62,14.2 ± 5.2,400 ± 45,238 ± 46,371 ± 69,421 ± 40,those actions increased in a dose-dependent manner,had a growth inhibiting action,found to have an activity for promoting the production of cyclic guanosine monophosphate,–
"pBNP: porcine-derived brain natriuretic peptide, single-stranded peptide composed of 26 amino acids having a single S--S bond (DSGCFGRRLDRIGSLSGLGCNVLRRY; disulfide 4-20 (inferred); UniProt P07634 106-131, looked up)",–,–,–,–,–,–,–,–,–,–,–,–,–,–,–,–,–,–,–,comparable levels of natriuretic and hypotensive actions to α-hANP
